Measured values published in patent US11040959B2, “Diprovocims: a new and potent class of TLR agonists” (The Scripps Research Institute, priority 2016, dated 2021).
Like-named read-outs stand apart in the source and are kept apart here.

Tests used:
[1] = tested on: differentiated human THP-1 cells; assay: stimulated release of TNF-α from differentiated human THP-1 cells (ELISA, dose-response); type: cell-based; details: Homo sapiens, read-out: EC50 (nM) (THP-1)
In short: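 Human THP-1 cells were PMA-differentiated toward macrophages, and stimulated TNF-α release was measured by ELISA. EC50 values were taken from dose-response curves.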

[2] = tested on: mouse macrophages; assay: stimulated release of TNF-α from mouse macrophages; type: cell-based; details: Macrophage, read-out: EC50 (nM) (mouse)
In short: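 EC50 derived from dose-response curves for stimulated TNF-α release from mouse macrophages.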

[3] = THP-1, Table 3, TNF-α release from human THP-1 cells
[4] = Table 3, TNF-α release from mouse macrophages
[5] = THP-1, Table 7, TNF-α release from human THP-1 cells
[6] = Table 7, TNF-α release from mouse macrophages

Compound	EC50 [1, 3]	EC50 [2, 4]	EC50 [1, 5]	EC50 [2, 6]
O=C(N[C@H]1C[C@@H]1c1ccccc1)[C@@H]1CN(C(=O)c2ccc(C(=O)N3C[C@@H](C(=O)N[C@H]4C[C@@H]4c4ccccc4)[C@H](C(=O)N[C@H]4C[C@@H]4c4ccccc4)C3)s2)C[C@H]1C(=O)N[C@H]1C[C@@H]1c1ccccc1 [Compound 49, (3S,3′S,4S,4′S)-1,1′-(Thiophene-2,5-dicarbonyl)-bis(N^3,N^4-bis((1S,2R)-2-phenylcyclopropyl)-pyrrolidine-3,4-dicarboxamide)]	350 nM	> 5000 nM		
O=C(N[C@H]1C[C@@H]1c1ccccc1)[C@@H]1CN(C(=O)c2cnc(C(=O)N3C[C@@H](C(=O)N[C@H]4C[C@@H]4c4ccccc4)[C@H](C(=O)N[C@H]4C[C@@H]4c4ccccc4)C3)cn2)C[C@H]1C(=O)N[C@H]1C[C@@H]1c1ccccc1 [Compound 50, (3S,3′S,4S,4′S)-1,1′-(Pyrazine-2,5-dicarbonyl)-bis(N^3,N^4-bis((1S,2R)-2-phenylcyclopropyl)-pyrrolidine-3,4-dicarboxamide)]	130 nM	> 5000 nM		
O=C(N[C@H]1C[C@@H]1c1ccccc1)[C@@H]1CN(C(=O)c2ccc(C(=O)N3C[C@@H](C(=O)N[C@H]4C[C@@H]4c4ccccc4)[C@H](C(=O)N[C@H]4C[C@@H]4c4ccccc4)C3)nc2)C[C@H]1C(=O)N[C@H]1C[C@@H]1c1ccccc1 [Compound 51, (3S,3′S,4S,4′S)-1,1′-(Pyridine-2,5-dicarbonyl)-bis(N^3,N^4-bis((1S,2R)-2-phenylcyclopropyl)-pyrrolidine-3,4-dicarboxamide)]	4 nM	270 nM		
O=C(N[C@H]1C[C@@H]1c1ccccc1)[C@@H]1CN(C(=O)/C=C/C=C/C(=O)N2C[C@@H](C(=O)N[C@H]3C[C@@H]3c3ccccc3)[C@H](C(=O)N[C@H]3C[C@@H]3c3ccccc3)C2)C[C@H]1C(=O)N[C@H]1C[C@@H]1c1ccccc1 [Compound 52, (3S,3′S,4S,4′S)-1,1′-((2E,4E)-Hexa-2,4-dienedioyl)-bis(N^3,N^4-bis((1S,2R)-2-phenylcyclopropyl)-pyrrolidine-3,4-dicarboxamide)]	> 5000 nM	> 5000 nM		
O=C(N[C@H]1C[C@@H]1c1ccccc1)[C@@H]1CN(C(=O)c2ccc(C(=O)N3C[C@@H](C(=O)N[C@H]4C[C@@H]4c4ccccc4)[C@H](C(=O)N[C@H]4C[C@@H]4c4ccccc4)C3)c(O)c2)C[C@H]1C(=O)N[C@H]1C[C@@H]1c1ccccc1 [Compound 53, (3S,3′S,4S,4′S)-1,1′-(2-Hydroxyterephthaloyl)-bis(N^3,N^4-bis((1S,2R)-2-phenylcyclopropyl)pyrrolidine-3,4-dicarboxamide)]	0.2 nM	130 nM		
O=C(N[C@H]1C[C@@H]1c1ccccc1)[C@@H]1CN(C(=O)c2ccc(C(=O)N3C[C@@H](C(=O)N[C@H]4C[C@@H]4c4ccccc4)[C@H](C(=O)N[C@H]4C[C@@H]4c4ccccc4)C3)c([N+](=O)[O-])c2)C[C@H]1C(=O)N[C@H]1C[C@@H]1c1ccccc1 [Compound 54, (3S,3′S,4S,4′S)-1,1′-(2-Nitroterephthaloyl)-bis(N^3,N^4-bis((1S,2R)-2-phenylcyclopropyl)pyrrolidine-3,4-dicarboxamide)]	20 nM	> 5000 nM		
Nc1cc(C(=O)N2C[C@@H](C(=O)N[C@H]3C[C@@H]3c3ccccc3)[C@H](C(=O)N[C@H]3C[C@@H]3c3ccccc3)C2)ccc1C(=O)N1C[C@@H](C(=O)N[C@H]2C[C@@H]2c2ccccc2)[C@H](C(=O)N[C@H]2C[C@@H]2c2ccccc2)C1 [Compound 55, (3S,3′S,4S,4′S)-1,1′-(2-Amino-terephthaloyl)-bis(N^3,N^4-bis((1S,2R)-2-phenylcyclopropyl)-pyrrolidine-3,4-dicarboxamide)]	1 nM	140 nM		
C#CCOc1cc(C(=O)N2C[C@@H](C(=O)N[C@H]3C[C@@H]3c3ccccc3)[C@H](C(=O)N[C@H]3C[C@@H]3c3ccccc3)C2)ccc1C(=O)N1C[C@@H](C(=O)N[C@H]2C[C@@H]2c2ccccc2)[C@H](C(=O)N[C@H]2C[C@@H]2c2ccccc2)C1 [Compound 56, (3S,3′S,4S,4′S)-1,1′-(2-(Prop-2-yn-1-yloxy)-terephthaloyl)bis(N^3,N^4-bis((1S,2R)-2-phenylcyclo-propyl)pyrrolidine-3,4-dicarboxamide)]	15 nM	750 nM		
COc1cc(C(=O)N2C[C@@H](C(=O)N[C@H]3C[C@@H]3c3ccccc3)[C@H](C(=O)N[C@H]3C[C@@H]3c3ccccc3)C2)ccc1C(=O)N1C[C@@H](C(=O)N[C@H]2C[C@@H]2c2ccccc2)[C@H](C(=O)N[C@H]2C[C@@H]2c2ccccc2)C1 [Compound 57, (3S,3′S,4S,4′S)-1,1′-(2-Methoxy-terephthaloyl)-bis(N^3,N^4-bis((1S,2R)-2-phenylcyclopropyl)-pyrrolidine-3,4-dicarboxamide)]	30 nM	250 nM		
O=C(N[C@H]1C[C@@H]1c1ccccc1)[C@@H]1CN(C(=O)c2ccc(C(=O)N3C[C@@H](C(=O)N[C@H]4C[C@@H]4c4ccccc4)[C@H](C(=O)N[C@H]4C[C@@H]4c4ccccc4)C3)c(Br)c2)C[C@H]1C(=O)N[C@H]1C[C@@H]1c1ccccc1 [Compound 58, (3S,3′S,4S,4′S)-1,1′-(2-Bromoterephthaloyl)-bis(N^3,N^4-bis((1S,2R)-2-phenylcyclopropyl)pyrrolidine-3,4-dicarboxamide)]	5 nM	10 nM		
O=C(N[C@H]1C[C@@H]1c1ccccc1)[C@@H]1CN(C(=O)c2cc(O)c(C(=O)N3C[C@@H](C(=O)N[C@H]4C[C@@H]4c4ccccc4)[C@H](C(=O)N[C@H]4C[C@@H]4c4ccccc4)C3)cc2O)C[C@H]1C(=O)N[C@H]1C[C@@H]1c1ccccc1 [Compound 59, (3S,3′S,4S,4′S)-1,1′-(2,5-Dihydroxy-terephthaloyl)bis(N^3,N^4-bis((1S,2R)-2-phenylcyclo-propyl)-pyrrolidine-3,4-dicarboxamide)]	20 nM	> 5000 nM		
O=C(N[C@H]1C[C@@H]1c1ccccc1)[C@@H]1CN(C(=O)c2c(F)c(F)c(C(=O)N3C[C@@H](C(=O)N[C@H]4C[C@@H]4c4ccccc4)[C@H](C(=O)N[C@H]4C[C@@H]4c4ccccc4)C3)c(F)c2F)C[C@H]1C(=O)N[C@H]1C[C@@H]1c1ccccc1 [Compound 60, (3S,3′S,4S,4′S)-1,1′-(Perfluoroterephthaloyl)-bis(N^3,N^4-bis((1S,2R)-2-phenylcyclopropyl)pyrrolidine-3,4-dicarboxamide)]	110 nM	> 5000 nM		
O=C(N[C@H]1C[C@@H]1c1ccccc1)[C@@H]1CN(C(=O)c2cc(Cl)c(C(=O)N3C[C@@H](C(=O)N[C@H]4C[C@@H]4c4ccccc4)[C@H](C(=O)N[C@H]4C[C@@H]4c4ccccc4)C3)cc2Cl)C[C@H]1C(=O)N[C@H]1C[C@@H]1c1ccccc1 [Compound 61, (3S,3′S,4S,4′S)-1,1′-(2,5-Dichloroterephthaloyl)-bis(N^3,N^4-bis((1S,2R)-2-phenylcyclopropyl)pyrrolidine-3,4-dicarboxamide)]	360 nM	> 5000 nM		
O=C(N[C@H]1C[C@@H]1c1ccccc1)[C@@H]1CN(C(=O)c2cc(Br)c(C(=O)N3C[C@@H](C(=O)N[C@H]4C[C@@H]4c4ccccc4)[C@H](C(=O)N[C@H]4C[C@@H]4c4ccccc4)C3)cc2Br)C[C@H]1C(=O)N[C@H]1C[C@@H]1c1ccccc1 [Compound 62, (3S,3′S,4S,4′S)-1,1′-(2,5-Dibromoterephthaloyl)-bis(N^3,N^4-bis((1S,2R)-2-phenylcyclopropyl)pyrrolidine-3,4-dicarboxamide)]	860 nM	> 5000 nM		
Cc1cc(C(=O)N2C[C@@H](C(=O)N[C@H]3C[C@@H]3c3ccccc3)[C@H](C(=O)N[C@H]3C[C@@H]3c3ccccc3)C2)c(C)cc1C(=O)N1C[C@@H](C(=O)N[C@H]2C[C@@H]2c2ccccc2)[C@H](C(=O)N[C@H]2C[C@@H]2c2ccccc2)C1 [Compound 63, (3S,3′S,4S,4′S)-1,1′-(2,5-Dimethylterephthaloyl)-bis(N^3,N^4-bis((1S,2R)-2-phenylcyclopropyl)pyrrolidine-3,4-dicarboxamide)]	> 5000 nM	> 5000 nM		
O=C(NCCc1ccc(F)cc1)[C@@H]1CN(C(=O)C#CC(=O)N2C[C@@H](C(=O)NCCc3ccc(F)cc3)[C@H](C(=O)NCCc3ccc(F)cc3)C2)C[C@H]1C(=O)NCCc1ccc(F)cc1 [Compound 100, (3S,3′S,4S,4′S)-1,1′-(But-2-ynedi-oyl)bis(N^3,N^4-bis(4-fluorophenethyl)pyrrolidine-3,4-dicarboxamide)]			> 5000 nM	> 5000 nM
O=C(NCCc1ccc(F)cc1)[C@@H]1CN(C(=O)/C=C/C(=O)N2C[C@@H](C(=O)NCCc3ccc(F)cc3)[C@H](C(=O)NCCc3ccc(F)cc3)C2)C[C@H]1C(=O)NCCc1ccc(F)cc1 [Compound 101, (3S,3′S,4S,4′S)-1,1′-Fumaroylbis-(N^3,N^4-bis(4-fluorophnethyl)pyrrolidine-3,4-dicarboxamide)]			> 5000 nM	> 5000 nM
O=C(NCCc1ccc(F)cc1)[C@@H]1CN(C(=O)C/C=C/CC(=O)N2C[C@@H](C(=O)NCCc3ccc(F)cc3)[C@H](C(=O)NCCc3ccc(F)cc3)C2)C[C@H]1C(=O)NCCc1ccc(F)cc1 [Compound 102, (3S,3′S,4S,4′S)-1,1′-((E)-Hex-3-enedioyl)bis-(N^3,N^4-bis(4-fluorophenethyl)pyrrolidine-3,4-dicarboxamide)]			> 5000 nM	> 5000 nM
O=C(NCCc1ccc(F)cc1)[C@@H]1CN(C(=O)c2cccc(C(=O)N3C[C@@H](C(=O)NCCc4ccc(F)cc4)[C@H](C(=O)NCCc4ccc(F)cc4)C3)c2)C[C@H]1C(=O)NCCc1ccc(F)cc1 [Compound 103, (3S,3′S,4S,4′S)-1,1′-Isophthaloyl-bis-(N^3,N^4-bis(4-fluorophenethyl)pyrrolidine-3,4-dicarboxamide)]			> 5000 nM	> 5000 nM
